Experimental data from ChEMBL document CHEMBL1909046, “DrugMatrix in vitro pharmacology data”.

Legend:
[1] = molecular target: Beta-1 adrenergic receptor (Homo sapiens, UniProt P08588); experiment: DRUGMATRIX: Adrenergic beta1 radioligand binding (ligand: [125I] Cyanopindolol); format: cell membranes, CHO-K1, Membrane; settings: cho-k1; Not Active = under 50% inhibition at 10 µM
[2] = molecular target: T1, C-X-C chemokine receptor type 2 (Homo sapiens, UniProt P25025); format: cell membranes, Membrane; settings: cho-k1; also: in other assays of this panel Not Active means under 50% inhibition at 10 µM
T1 sequence (P25025 whole entry): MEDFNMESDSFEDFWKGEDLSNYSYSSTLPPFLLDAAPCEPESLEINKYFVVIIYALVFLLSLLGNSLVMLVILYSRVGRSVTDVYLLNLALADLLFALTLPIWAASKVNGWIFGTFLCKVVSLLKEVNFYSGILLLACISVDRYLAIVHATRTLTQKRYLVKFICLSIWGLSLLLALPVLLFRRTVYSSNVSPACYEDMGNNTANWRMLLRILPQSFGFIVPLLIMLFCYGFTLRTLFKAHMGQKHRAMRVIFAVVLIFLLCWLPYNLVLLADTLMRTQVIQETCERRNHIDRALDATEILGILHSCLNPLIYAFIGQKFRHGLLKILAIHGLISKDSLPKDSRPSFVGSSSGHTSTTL

D(1A) dopamine receptor = D(1A) dopamine receptor (Homo sapiens, UniProt P21728); experiment: DRUGMATRIX: Dopamine D1 radioligand binding (ligand: [3H] SCH-23390); format: cell membranes, Membrane; settings: cho; Not Active = under 50% inhibition at 10 µM
Chain of D(1A) dopamine receptor (P21728 whole entry): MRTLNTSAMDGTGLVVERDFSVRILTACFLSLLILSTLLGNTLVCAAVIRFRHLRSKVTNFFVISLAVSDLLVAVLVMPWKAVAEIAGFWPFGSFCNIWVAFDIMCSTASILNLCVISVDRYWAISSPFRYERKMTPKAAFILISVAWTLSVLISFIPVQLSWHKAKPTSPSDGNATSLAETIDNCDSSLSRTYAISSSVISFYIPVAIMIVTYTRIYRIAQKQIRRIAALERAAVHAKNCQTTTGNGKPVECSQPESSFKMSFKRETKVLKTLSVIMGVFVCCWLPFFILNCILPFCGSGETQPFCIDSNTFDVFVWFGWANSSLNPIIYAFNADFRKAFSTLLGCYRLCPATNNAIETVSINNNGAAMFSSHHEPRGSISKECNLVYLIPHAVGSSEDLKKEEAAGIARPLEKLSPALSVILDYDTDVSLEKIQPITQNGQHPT

Cathepsin G = molecular target: T2, Cathepsin G (Homo sapiens, UniProt P08311); format: tissue-based; settings: neutrophil;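 also: inhibition of Cathepsin G enzyme activity, tested on an AMC-conjugated peptide substrate; in other assays of this panel Not Active means under 50% inhibition at 10 µM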
T2 sequence (P08311 whole entry): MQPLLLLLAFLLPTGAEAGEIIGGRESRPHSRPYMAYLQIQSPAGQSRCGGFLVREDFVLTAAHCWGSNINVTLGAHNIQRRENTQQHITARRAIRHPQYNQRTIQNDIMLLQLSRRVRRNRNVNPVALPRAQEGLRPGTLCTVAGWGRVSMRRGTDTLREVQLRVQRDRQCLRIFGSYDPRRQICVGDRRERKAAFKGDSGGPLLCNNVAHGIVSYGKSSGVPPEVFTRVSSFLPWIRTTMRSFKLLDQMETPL

[3] = molecular target: Mitogen-activated protein kinase 14 (Homo sapiens, UniProt Q16539); design: species or system Escherichia coli;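 also: inhibition of p38alpha enzyme activity in a biochemical kinase assay, with myelin basic protein serving as substrate; in other assays of this panel Not Active means under 50% inhibition at 10 µM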
Chain of Mitogen-activated protein kinase 14 (Q16539 whole entry): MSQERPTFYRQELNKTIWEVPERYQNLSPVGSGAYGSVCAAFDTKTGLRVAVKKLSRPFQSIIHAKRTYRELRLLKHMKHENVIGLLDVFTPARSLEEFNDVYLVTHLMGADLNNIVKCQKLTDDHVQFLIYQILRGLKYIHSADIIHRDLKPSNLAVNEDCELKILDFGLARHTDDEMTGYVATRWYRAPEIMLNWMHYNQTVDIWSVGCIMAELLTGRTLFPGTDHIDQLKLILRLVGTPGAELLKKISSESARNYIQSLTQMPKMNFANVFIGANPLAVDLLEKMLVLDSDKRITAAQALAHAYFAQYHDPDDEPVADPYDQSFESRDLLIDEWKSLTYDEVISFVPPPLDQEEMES

[4] = molecular target: Tyrosine-protein kinase Lck (Homo sapiens, UniProt P06239); experiment: DRUGMATRIX: Protein Tyrosine Kinase, LCK enzyme inhibition (substrate: Poly(Glu:Tyr)); format: cell-based, Insect cells; settings: Not Active = under 50% inhibition at 10 µM
Chain of Tyrosine-protein kinase Lck (P06239 whole entry): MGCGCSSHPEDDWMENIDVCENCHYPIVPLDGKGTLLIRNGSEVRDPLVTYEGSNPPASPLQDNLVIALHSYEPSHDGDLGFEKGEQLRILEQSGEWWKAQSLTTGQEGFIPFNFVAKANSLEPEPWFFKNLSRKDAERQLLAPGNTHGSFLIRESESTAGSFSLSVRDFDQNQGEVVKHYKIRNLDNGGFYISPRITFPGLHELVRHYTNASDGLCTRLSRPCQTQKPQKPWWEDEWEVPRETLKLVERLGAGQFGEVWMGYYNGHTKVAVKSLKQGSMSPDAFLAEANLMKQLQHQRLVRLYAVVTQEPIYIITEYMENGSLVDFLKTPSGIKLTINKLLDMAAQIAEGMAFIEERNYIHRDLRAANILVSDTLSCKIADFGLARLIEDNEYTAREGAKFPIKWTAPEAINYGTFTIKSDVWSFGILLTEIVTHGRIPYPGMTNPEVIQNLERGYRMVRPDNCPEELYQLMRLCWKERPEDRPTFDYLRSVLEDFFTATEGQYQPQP

Acetylcholinesterase = Acetylcholinesterase (Homo sapiens, UniProt P22303); experiment: DRUGMATRIX: Acetylcholinesterase enzyme inhibition (substrate: acetylthiocholine); format: cell-based, HEK293; settings: hek293; Not Active = under 50% inhibition at 10 µM
Chain of Acetylcholinesterase (P22303 whole entry): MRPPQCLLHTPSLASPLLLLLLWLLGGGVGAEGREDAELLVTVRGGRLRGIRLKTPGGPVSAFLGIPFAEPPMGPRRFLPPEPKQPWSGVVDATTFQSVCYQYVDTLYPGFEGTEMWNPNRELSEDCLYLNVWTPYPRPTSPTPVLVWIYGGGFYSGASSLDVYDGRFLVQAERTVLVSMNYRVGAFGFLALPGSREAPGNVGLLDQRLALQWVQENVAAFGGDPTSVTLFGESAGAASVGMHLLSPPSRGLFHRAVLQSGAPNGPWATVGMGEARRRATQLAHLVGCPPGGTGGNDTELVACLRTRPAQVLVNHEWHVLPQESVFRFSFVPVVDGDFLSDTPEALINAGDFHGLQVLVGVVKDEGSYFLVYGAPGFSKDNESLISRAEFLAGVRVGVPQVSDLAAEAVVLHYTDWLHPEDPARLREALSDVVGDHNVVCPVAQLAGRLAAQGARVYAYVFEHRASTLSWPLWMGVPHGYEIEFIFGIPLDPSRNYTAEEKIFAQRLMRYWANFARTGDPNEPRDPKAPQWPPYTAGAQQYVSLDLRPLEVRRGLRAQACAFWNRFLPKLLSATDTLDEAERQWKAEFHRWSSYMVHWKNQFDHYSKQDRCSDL

Chain of Beta-1 adrenergic receptor (P08588 whole entry): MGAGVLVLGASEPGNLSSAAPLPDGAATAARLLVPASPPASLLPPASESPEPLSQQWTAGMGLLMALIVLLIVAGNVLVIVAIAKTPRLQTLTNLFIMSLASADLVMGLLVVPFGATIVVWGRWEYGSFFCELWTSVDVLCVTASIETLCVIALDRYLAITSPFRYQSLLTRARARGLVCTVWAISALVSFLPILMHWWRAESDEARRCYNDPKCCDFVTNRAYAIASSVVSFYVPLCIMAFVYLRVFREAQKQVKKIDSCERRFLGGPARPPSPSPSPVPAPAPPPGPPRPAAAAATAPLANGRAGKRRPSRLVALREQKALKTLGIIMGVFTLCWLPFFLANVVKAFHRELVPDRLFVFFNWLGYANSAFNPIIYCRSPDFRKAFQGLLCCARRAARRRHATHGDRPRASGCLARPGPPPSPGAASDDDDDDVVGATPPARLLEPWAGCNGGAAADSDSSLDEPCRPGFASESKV

SMILES	IC50 [1]	IC50 [2]	IC50 (D(1A) dopamine receptor)	IC50 (Cathepsin G)	IC50 [3]	IC50 ([4]; insect cells)	IC50 (Acetylcholinesterase)	IC50 ([4]; read-out: IC50) [µM]
Cc1cc(=O)n(-c2ccccc2)n1C [ANTIPYRINE]	Not Active	Not Active	Not Active	Not Active	Not Active	Not Active	Not Active	
COc1cccc2c1C(=O)c1c(O)c3c(c(O)c1C2=O)C[C@@](O)(C(=O)CO)C[C@@H]3O[C@H]1C[C@H](N)[C@@H](O)[C@H](C)O1 [EPIRUBICIN]	Not Active	Not Active	Not Active	Not Active	Not Active	Not Active	Not Active	
C[C@](O)(CS(=O)(=O)c1ccc(F)cc1)C(=O)Nc1ccc(C#N)c(C(F)(F)F)c1 [(R)-BICALUTAMIDE]	Not Active	Not Active	Not Active	Not Active	Not Active	Not Active	Not Active	
COc1ccc2c(c1)[C@]13CCCC[C@@H]1[C@H](C2)N(C)CC3 [DEXTROMETHORPHAN]	Not Active	Not Active	Not Active	Not Active	Not Active	Not Active	Not Active	
COP(=O)(OC)OC=C(Cl)Cl [DICHLORVOS]	Not Active	Not Active	Not Active	Not Active	Not Active	Not Active	Not Active	
CCN[C@@H]1C[C@H](N)[C@@H](O[C@H]2OC(CN)=CC[C@H]2N)[C@H](O)[C@H]1O[C@H]1OC[C@](C)(O)[C@H](NC)[C@H]1O [NETILMICIN]	Not Active	Not Active	Not Active	Not Active	Not Active	Not Active	Not Active	
CN(C)/N=N/c1[nH]cnc1C(N)=O [DACARBAZINE]	Not Active	Not Active	Not Active	Not Active	Not Active	Not Active	Not Active	
O=NN(CCCl)C(=O)NCCCl [CARMUSTINE]	Not Active	Not Active	Not Active	Not Active	Not Active	Not Active	Not Active	
Oc1ccc(OCc2ccccc2)cc1 [MONOBENZONE]	Not Active	Not Active	Not Active	Not Active	Not Active	Not Active	Not Active	
O=C1CC2(CCCC2)CC(=O)N1CCCCN1CCN(c2ncccn2)CC1 [BUSPIRONE]	Not Active	Not Active	Not Active	Not Active	Not Active	Not Active	Not Active	
Nc1ccn([C@@H]2CS[C@H](CO)O2)c(=O)n1 [LAMIVUDINE]	Not Active	Not Active	Not Active	Not Active	Not Active	Not Active	Not Active	
COc1ccc2c(c1)c(CC(=O)O)c(C)n2C(=O)c1ccc(Cl)cc1 [INDOMETHACIN]	Not Active	Not Active	Not Active	Not Active	Not Active	Not Active	Not Active	
CC(C)[C@H]1CC[C@H](C(=O)N[C@H](Cc2ccccc2)C(=O)O)CC1 [NATEGLINIDE]	Not Active	Not Active	Not Active	Not Active	Not Active	Not Active	Not Active	
C[C@]12CC[C@@H]3c4ccc(OC(=O)c5ccccc5)cc4CC[C@H]3[C@@H]1CC[C@@H]2O [ESTRADIOL BENZOATE]	Not Active	Not Active	Not Active	Not Active	Not Active	Not Active	Not Active	
CC1(C)O[C@@H]2C[C@H]3[C@@H]4C[C@H](F)C5=CC(=O)C=C[C@]5(C)[C@H]4[C@@H](O)C[C@]3(C)[C@]2(C(=O)CO)O1 [FLUNISOLIDE]	Not Active	Not Active	Not Active	Not Active	Not Active	Not Active	Not Active	
CC1=C(C(=O)O)N2C(=O)[C@@H](NC(=O)[C@H](N)c3ccccc3)[C@H]2SC1 [CEPHALEXIN ANHYDROUS]	Not Active	Not Active	Not Active	Not Active	Not Active	Not Active	Not Active	
COC(=O)C1=C(C)NC(C)=C(C(=O)OCC(C)C)C1c1ccccc1[N+](=O)[O-] (centres undefined) [NISOLDIPINE]	Not Active	Not Active	Not Active	Not Active	Not Active	Not Active	Not Active	
CC(=O)Nc1ccc(O)cc1 [ACETAMINOPHEN]	Not Active	Not Active	Not Active	Not Active	Not Active	Not Active	Not Active	
C[C@]12CC[C@@H]3c4ccc(O)cc4CC[C@H]3[C@@H]1CC[C@@H]2O [ESTRADIOL]	Not Active	Not Active	Not Active	Not Active	Not Active	Not Active	Not Active	
C#C[C@]1(OC(C)=O)CC[C@H]2[C@@H]3CCC4=CC(=O)CC[C@@H]4[C@H]3CC[C@@]21C [NORETHINDRONE ACETATE]	Not Active	Not Active	Not Active	Not Active	Not Active	Not Active	Not Active	
N=C(Nc1ccccc1)Nc1ccccc1	Not Active	Not Active	Not Active	Not Active	Not Active	Not Active	Not Active	
ClC(Cl)Cl [CHLOROFORM]	Not Active	Not Active	Not Active	Not Active	Not Active	Not Active	Not Active	
N=C(N)NC(=O)c1nc(Cl)c(N)nc1N [AMILORIDE]	Not Active	Not Active	Not Active	Not Active	Not Active	Not Active	Not Active	
CCN1CC(CCN2CCOCC2)C(c2ccccc2)(c2ccccc2)C1=O (centres undefined) [DOXAPRAM]	Not Active	Not Active	Not Active	Not Active	Not Active	Not Active	Not Active	
Cc1ccc(S(=O)(=O)NC(=O)NN2CC3CCCC3C2)cc1 (centres undefined) [GLICLAZIDE]	Not Active	Not Active	Not Active	Not Active	Not Active	Not Active	Not Active	
COc1cccc2c1C(=O)c1c(O)c3c(c(O)c1C2=O)C[C@@](O)(C(=O)CO)C[C@@H]3O[C@H]1C[C@H](N)[C@H](O)[C@H](C)O1 [DOXORUBICIN]	Not Active	Not Active	Not Active	Not Active	Not Active		Not Active	31.9
Cn1c(=O)c2c(ncn2CC2OCCO2)n(C)c1=O [DOXOFYLLINE]	Not Active	Not Active	Not Active	Not Active	Not Active	Not Active	Not Active	
